In the supplement of paper PMC11451515:

Tested on: P12-Ichikawa
Assay: cell viability relative to DMSO control; higher = less cytotoxic
Conditions: 48 h
In short: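 Viability was expressed as a per-plate percentage of DMSO wells, with cell-free wells as background. Leukemia cells (NOMO1 or SEM at 500 cells/well, P12-Ichikawa at 1000 cells/well) were adapted for at least four passages in each medium and seeded in 1536-well plates (5 μl). Library compounds in DMSO were pin-dosed over an 11-point threefold series from 47 μM to 0.79 nM, and CellTiter-Glo One luminescence was read after 48 h at 37°C.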

[1] = HPLM + 10% dialyzed FBS, 0.000781 µM
[2] = HPLM + 10% dialyzed FBS, 0.00234 µM
[3] = HPLM + 10% dialyzed FBS, 0.00702 µM
[4] = HPLM + 10% dialyzed FBS, 0.0211 µM
[5] = HPLM + 10% dialyzed FBS, 0.0632 µM
[6] = HPLM + 10% dialyzed FBS, 0.19 µM
[7] = HPLM + 10% dialyzed FBS, 0.569 µM
[8] = HPLM + 10% dialyzed FBS, 1.71 µM
[9] = HPLM + 10% dialyzed FBS, 5.12 µM
[10] = HPLM + 10% dialyzed FBS, 15.4 µM
[11] = HPLM + 10% dialyzed FBS, 46.1 µM
[12] = RPMI 5 mM glucose + 10% FBS, 0.000781 µM
[13] = RPMI 5 mM glucose + 10% FBS, 0.00234 µM
[14] = RPMI 5 mM glucose + 10% FBS, 0.00702 µM
[15] = RPMI 5 mM glucose + 10% FBS, 0.0211 µM
[16] = RPMI 5 mM glucose + 10% FBS, 0.0632 µM
[17] = RPMI 5 mM glucose + 10% FBS, 0.19 µM
[18] = RPMI 5 mM glucose + 10% FBS, 0.569 µM
[19] = RPMI 5 mM glucose + 10% FBS, 1.71 µM
[20] = RPMI 5 mM glucose + 10% FBS, 5.12 µM
[21] = RPMI 5 mM glucose + 10% FBS, 15.4 µM
[22] = RPMI 5 mM glucose + 10% FBS, 46.1 µM
[23] = RPMI 5 mM glucose + 10% dialyzed FBS, 0.000781 µM
[24] = RPMI 5 mM glucose + 10% dialyzed FBS, 0.00234 µM
[25] = RPMI 5 mM glucose + 10% dialyzed FBS, 0.00702 µM
[26] = RPMI 5 mM glucose + 10% dialyzed FBS, 0.0211 µM
[27] = RPMI 5 mM glucose + 10% dialyzed FBS, 0.0632 µM
[28] = RPMI 5 mM glucose + 10% dialyzed FBS, 0.19 µM
[29] = RPMI 5 mM glucose + 10% dialyzed FBS, 0.569 µM
[30] = RPMI 5 mM glucose + 10% dialyzed FBS, 1.71 µM
[31] = RPMI 5 mM glucose + 10% dialyzed FBS, 5.12 µM
[32] = RPMI 5 mM glucose + 10% dialyzed FBS, 15.4 µM
[33] = RPMI 5 mM glucose + 10% dialyzed FBS, 46.1 µM

| Compound | cell viability [1] [%] | cell viability [2] [%] | cell viability [3] [%] | cell viability [4] [%] | cell viability [5] [%] | cell viability [6] [%] | cell viability [7] [%] | cell viability [8] [%] | cell viability [9] [%] | cell viability [10] [%] | cell viability [11] [%] | cell viability [12] [%] | cell viability [13] [%] | cell viability [14] [%] | cell viability [15] [%] | cell viability [16] [%] | cell viability [17] [%] | cell viability [18] [%] | cell viability [19] [%] | cell viability [20] [%] | cell viability [21] [%] | cell viability [22] [%] | cell viability [23] [%] | cell viability [24] [%] | cell viability [25] [%] | cell viability [26] [%] | cell viability [27] [%] | cell viability [28] [%] | cell viability [29] [%] | cell viability [30] [%] | cell viability [31] [%] | cell viability [32] [%] | cell viability [33] [%] |
| --- | --- | --- | --- | --- | --- | --- | --- | --- | --- | --- | --- | --- | --- | --- | --- | --- | --- | --- | --- | --- | --- | --- | --- | --- | --- | --- | --- | --- | --- | --- | --- | --- | --- |
| CC(NC1=CC=CC=C1)C\2=C\C(=C/N3C(=O)\C=C(/N=C23)N4CCOCC4)C (stereo not given) | 101 | 100 | 107 | 110 | 109 | 110 | 115 | 115 | 110 | 106 | 101 | 95.9 | 98 | 97.4 | 98.1 | 102 | 110 | 115 | 113 | 101 | 112 | 102 | 88.6 | 93.6 | 114 | 110 | 99.1 | 115 | 110 | 116 | 105 | 106 | 111 |
| COc1cc2nc(N(C)CCCNC(=O)C3CCCO3)nc(N)c2cc1OC (stereo not given) | 78.4 | 88.7 | 80.9 | 92.3 | 88.8 | 87.6 | 86.2 | 82.3 | 88.3 | 92.6 | 94.1 | 82.3 | 87.4 | 89.9 | 91 | 92.6 | 91.3 | 84.6 | 87.8 | 91.6 | 93.9 | 101 | 70.4 | 81.7 | 76.8 | 78.9 | 82.9 | 83.4 | 79.5 | 82.7 | 76.6 | 87.8 | 80.7 |
| COC1=CC=CC2=C1C(=NC(=N2)C3=CC=CS3)NN4C(=O)\C=C(C)/C4=O | 94.4 | 98.3 | 104 | 92.5 | 93.2 | 86.5 | 62.2 | 56.8 | 19.7 | 4.94 | 1.01 | 90.6 | 93.7 | 92.2 | 92.9 | 84.7 | 75.4 | 62.8 | 59.7 | 21.3 | 4.06 | 0.767 | 87 | 90.7 | 94.6 | 86.7 | 87.8 | 74.1 | 62.3 | 54.9 | 23.7 | 3.09 | 0.857 |
| COc1cnc(N[S+](=O)([O-])c2ccc(N)cc2)nc1 | 107 | 118 | 113 | 119 | 122 | 125 | 134 | 126 | 117 | 90.1 | 45.1 | 101 | 109 | 109 | 117 | 118 | 118 | 126 | 130 | 117 | 102 | 59.2 | 111 | 108 | 122 | 119 | 127 | 118 | 128 | 124 | 119 | 104 | 67 |
| CC[C@H](CC[C@@H](C)[C@H]1CC[C@H]2[C@@H]3C\C=C/4C[C@@H](O)CC[C@]4(C)[C@H]3CC[C@]12C)C(C)C | 117 | 111 | 123 | 119 | 112 | 111 | 111 | 110 | 99.4 | 103 | 75.9 | 112 | 119 | 120 | 121 | 120 | 118 | 111 | 107 | 106 | 108 | 92.2 | 110 | 118 | 110 | 107 | 108 | 110 | 109 | 103 | 103 | 105 | 93.1 |
| Cc1c(CCOc2ccc(C(=O)O)cc2)c2cc(Cl)ccc2n1C(c1ccccc1)c1ccccc1 | 123 | 110 | 112 | 117 | 113 | 113 | 107 | 105 | 101 | 83.8 | 71.8 | 109 | 112 | 111 | 111 | 108 | 108 | 112 | 101 | 106 | 103 | 86.1 | 109 | 111 | 116 | 116 | 107 | 110 | 104 | 113 | 99.3 | 103 | 88.8 |
| OC(=O)C1=CC=C(NC2=NC3=C(C\N=C(/C4=CC(=CC=C34)Cl)C5=C(F)C=CC=C5F)C=N2)C=C1 | 93.9 | 101 | 97.8 | 105 | 104 | 89.4 | 77.6 | 48.5 | 27.1 | 18.6 | 18.3 | 95.8 | 99.1 | 106 | 107 | 110 | 93.9 | 74.4 | 48.9 | 27 | 24.7 | 25.1 | 98.1 | 95.1 | 96.2 | 91.4 | 101 | 95.4 | 75.7 | 52.3 | 36.6 | 32.6 | 30.7 |
| CN(C)c1ccc(O)c2c1C[C@H]1C[C@H]3[C@H](N(C)C)C(O)=C(C(N)=O)C(=O)[C@@]3(O)C(O)=C1C2=O | 109 | 106 | 105 | 97.4 | 107 | 110 | 103 | 99.9 | 104 | 91.2 | 106 | 113 | 110 | 101 | 100 | 112 | 103 | 101 | 95.2 | 88.5 | 94.9 | 93.9 | 110 | 116 | 112 | 118 | 118 | 95.6 | 86.2 | 81.7 | 82.5 | 92.6 | 98.8 |
| CC(=O)Nc1ccc(OC[C@](C)(O)C(=O)Nc2ccc([N+](=O)[O-])c(C(F)(F)F)c2)cc1 | 74.6 | 87 | 84.5 | 87.8 | 85.5 | 89.1 | 88.4 | 88.6 | 90.8 | 91.6 | 86.5 | 63.5 | 76.8 | 71.1 | 87 | 85.5 | 77 | 80.6 | 83.8 | 85.1 | 86.3 | 81.2 | 67.3 | 76.4 | 77.3 | 78.2 | 92.5 | 76.4 | 80 | 83.4 | 80.3 | 85.8 | 80.7 |
| c1cncc(CN2CCC(n3ncc4c(N5CCOCC5)nc(-c5ccc6[nH]ccc6c5)nc43)CC2)c1 | 96.5 | 99.9 | 98.8 | 97.5 | 105 | 92.2 | 91.8 | 88.5 | 83.9 | 64.8 | 46.1 | 77.9 | 89.7 | 95.4 | 87.9 | 91.6 | 84.9 | 76.1 | 75.7 | 63.5 | 32.6 | 9.35 | 86.5 | 92.9 | 89.5 | 91.7 | 91.5 | 81.7 | 78.6 | 74.6 | 69.9 | 31.7 | 5.49 |
| C\C1=C\C(=O)OC2=C1C=CC(=C2)O | 122 | 121 | 121 | 122 | 109 | 116 | 108 | 107 | 106 | 102 | 93 | 112 | 119 | 115 | 122 | 109 | 114 | 107 | 111 | 99.9 | 118 | 99.1 | 122 | 115 | 114 | 122 | 120 | 108 | 114 | 104 | 103 | 104 | 106 |
| C[C@@H](NC1=CC=CC=C1C(O)=O)C/2=C/C(=C\N3C(=O)/C=C(\N=C23)N4CCOCC4)C | 87.2 | 87 | 101 | 94.1 | 95.9 | 93.2 | 97.1 | 89.3 | 75 | 60.5 | 39.9 | 82.4 | 78.7 | 83.5 | 97.1 | 92.1 | 84.7 | 85.7 | 72.2 | 59.2 | 47.9 | 27.6 | 77.7 | 85.3 | 93.1 | 92.9 | 90.5 | 88.4 | 80 | 87.4 | 61.9 | 46.3 | 33.1 |
| Cc1ccccc1C(C(=O)NC1CCCCC1)N(C(=O)Cn1ccnc1C)c1cccc(F)c1 (stereo not given) | 117 | 114 | 115 | 105 | 105 | 104 | 109 | 104 | 104 | 102 | 102 | 100 | 113 | 105 | 106 | 105 | 101 | 103 | 102 | 93.1 | 102 | 97.1 | 96.2 | 103 | 104 | 104 | 102 | 100 | 98.7 | 97.9 | 95.2 | 93.1 | 97.3 |
| Cl.Cl.Cl.O[C@@H](COc1cccc2ncccc12)CN1CCN([C@@H]2c3ccccc3[C@@H]3[C@H](c4ccccc42)C3(F)F)CC1 | 94.8 | 94.5 | 88.4 | 89.7 | 90.5 | 92.9 | 84 | 83.8 | 81.8 | 84.5 | 79.3 | 89.1 | 79.1 | 77.9 | 84 | 88.5 | 87 | 71 | 81.6 | 78.4 | 79.8 | 84.6 | 91.8 | 84.3 | 86.3 | 86.7 | 81.6 | 84.6 | 84.4 | 77.8 | 78.6 | 78.4 | 76.3 |
| CN[S+](=O)([O-])Cc1ccc2[nH]cc(CCN(C)C)c2c1 | 110 | 122 | 112 | 118 | 123 | 126 | 123 | 123 | 116 | 120 | 126 | 115 | 123 | 125 | 116 | 128 | 119 | 131 | 136 | 125 | 130 | 131 | 106 | 113 | 113 | 122 | 119 | 121 | 128 | 131 | 121 | 127 | 121 |
